Consider nine molecules from patent US7582447B2, “DNA encoding a testicular carnitine transporter” (Human Cell Systems, Inc., priority 2001, dated 2009).

Type in all cases: cell-based
The target in data set [1] is T1, CT2 (Homo sapiens, UniProt Q86VW1).
T1 construct: a cRNA (RNA complementary to cDNA) was prepared in vitro from a plasmid containing the CT2cDNA; expressed in transfected cells; host or cells: Xenopus laevis oocytes injected with CT2 cRNA
T1 sequence (Q86VW1 1-543 isoform Q86VW1-2): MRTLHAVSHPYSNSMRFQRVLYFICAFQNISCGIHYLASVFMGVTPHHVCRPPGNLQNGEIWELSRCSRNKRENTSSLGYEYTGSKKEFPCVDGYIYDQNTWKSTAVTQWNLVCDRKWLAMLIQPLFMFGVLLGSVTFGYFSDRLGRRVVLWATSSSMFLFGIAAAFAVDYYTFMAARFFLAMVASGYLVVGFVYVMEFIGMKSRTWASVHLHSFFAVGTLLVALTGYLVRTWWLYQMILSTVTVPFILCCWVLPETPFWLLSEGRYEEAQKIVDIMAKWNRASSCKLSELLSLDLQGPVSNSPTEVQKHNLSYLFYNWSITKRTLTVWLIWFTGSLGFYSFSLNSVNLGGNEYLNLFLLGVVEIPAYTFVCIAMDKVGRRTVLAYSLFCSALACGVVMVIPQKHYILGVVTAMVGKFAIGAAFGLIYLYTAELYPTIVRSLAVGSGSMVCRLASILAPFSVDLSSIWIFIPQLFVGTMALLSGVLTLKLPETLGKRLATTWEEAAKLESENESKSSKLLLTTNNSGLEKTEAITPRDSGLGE
Description: inhibition experiment: ^3H-carnitine uptake by oocytes injected with CT2 cRNA in the presence of unlabelled compounds. Conditions: for inhibition of ^3H-carnitine transport by CT2: 50 nM ^3H-carnitine, 5 μM or 50 μM unlabelled compound, FIG. 4. The procedure: (§1) The thus-obtained cRNA was injected into oocytes of a platanna in accordance with the already reported method (Sekine, T. et al., J. Biol. Chem., Vol. 272, pp. 18526-18529, 1997), and an uptake experiment by radioactive labeled L-carnitine was conducted on the oocytes.
(3) An influence to be exerted by D-Carnitine, which is an isomer of L-carnitine, on the L-carnitine transport by CT2 was studied.
(6) In order to study further on the substrate selectivity of CT2, in the ^3H-carnitine uptake experiment system by oocytes into which CT2cRNA was injected, various carnitine analogs were added to the system and its influences were investigated (inhibition experiment).
The ^3H-carnitine uptake experiment was performed in accordance with the above-described method using oocytes into which CT2cRNA was injected. 50 nM ^3H-carnitine uptake was measured in the presence or absence of 5 μM or 50 μM of various compounds (unlabelled).

The target in data set [2] is T1, CT2. Description: uptake experiment of radioactive labeled substrates by oocytes injected with human CT2 cRNA. Conditions: platanna oocytes injected with CT2 cRNA; FIG. 1A. As for the experimental part:
It is possible to confirm the ability to transport (uptake) carnitine into a cell by expressing a cRNA prepared from the obtained CT2cDNA by introducing the cRNA into an oocyte and measuring a substrate uptake into the cell employing an ordinary uptake experiment (Sekine, T et al., Biochem. Biophis. Res. Commun., Vol. 251, pp. 586-591, 1998) wherein carnitine is used as a substrate.
Next, a cRNA (RNA complementary to cDNA) was prepared in vitro from a plasmid containing the CT2cDNA by using a T7RNA polymerase (see Sekine, T., et al., J. Biol. Chem., Vol. 272, pp. 18526-18529, 1997).
as §1
A concentration dependence of the carnitine transport by CT2 was studied through an investigation of changes in amounts of uptake of various concentration carnitines by CT2. The uptake experiment of radioactive labeled carnitines was performed by using oocytes into which the CT2cRNA was injected and in accordance with the above-described method.

Substrate in data set [3]: C[N+](C)(C)C[C@H](O)CC(=O)[O-]
The description is as above. Conditions: other: Michaelis-Menten kinetics, oocytes injected with CT2cRNA; FIG. 2A.

A word on the Ki: it is the equilibrium dissociation constant of an inhibitor or competing ligand from its target. By Km is commonly meant the substrate concentration at which the rate is half of its maximum.

Take `CC(=O)OC(CC(=O)[O-])C[N+](C)(C)C` (racemic) [acetyl DL-carnitine]: at CT2 [1], the “inhibition of ^3H-carnitine transport by CT2” value is “significantly inhibited”. On to `C[N+](C)(C)C[C@@H](O)CC(=O)[O-]` [D-carnitine], for which the “inhibition of ^3H-carnitine transport by CT2” value at CT2 [1] was “significantly inhibited”. The “inhibition of the L-carnitine transport by CT2 (concentration dependence)” value at CT2 [1] (oocytes injected with CT2 cRNA, FIG. 2B) is reported as “inhibited the L-carnitine transport by CT2 in a concentration dependent manner”. The Ki at CT2 [1] (oocytes injected with CT2 cRNA, FIG. 2B, read-out: Ki value, inhibition of the L-carnitine transport by CT2) was roughly 30.1 µM. Turning to `C[N+](C)(C)C[C@H](O)CC(=O)[O-]` [L-carnitine], the “uptake of radioactive labeled substrate by oocytes which expressed the CT2” value (“uptake of radioactive labeled substrate” for short) on CT2 [2] is recorded as “exhibit ^3H-L-carnitine uptake”. For `CC(=O)O[C@H](CC(=O)[O-])C[N+](C)(C)C` [acetyl L-carnitine], on CT2 [1], the “inhibition of ^3H-carnitine transport by CT2” value is recorded as “significantly inhibited”.

Consider `C[N+](C)(C)CC(=O)O` [betaine], for which, on CT2 [1], the “inhibition of ^3H-carnitine transport by CT2” value is on record as “significantly inhibited”. Still for that read-out and setting: the same measure for `CCCCCCCC(=O)O[C@H](CC(=O)[O-])C[N+](C)(C)C` [octanoyl L-carnitine]: “significantly inhibited”. For `Nc1ccc(C(=O)NCC(=O)O)cc1` [paraamino hippuric acid], the “uptake of radioactive labeled substrate” value on CT2 [2] is recorded as “not observed”. Further, on CT2 [1], the “inhibition of ^3H-carnitine transport by CT2” value is “did not show inhibition effect”. As to `CC[N+](CC)(CC)CC` [tetraethylammnonium, tetraethyl ammonium], at CT2 [2], the “uptake of radioactive labeled substrate” value is given as “not observed”. The “inhibition of ^3H-carnitine transport by CT2” value at CT2 [1] is on record as “did not show inhibition effect”.

B1: CT2 (Homo sapiens) (protein)
chain: T1 sequence (Q86VW1 1-543 isoform Q86VW1-2)
notes: a cRNA (RNA complementary to cDNA) was prepared in vitro from a plasmid containing the CT2cDNA; expressed in transfected cells; host or cells: Xenopus laevis oocytes injected with CT2 cRNA
Regarding B1, the Km in data set [3] was determined as 20.3 µM.
